SMILES strings stand for the structures. Some results are limits rather than exact numbers.

As a reminder, the Kd is the constant that tells how readily two partners part at equilibrium.

Chain of CRBN truncate (318-426) (Q96SW2 318-426): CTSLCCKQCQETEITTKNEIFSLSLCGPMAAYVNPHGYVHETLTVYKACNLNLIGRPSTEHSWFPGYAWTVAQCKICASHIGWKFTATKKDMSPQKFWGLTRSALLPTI

The target of this experiment is CRBN truncate (318-426) (Homo sapiens (Human), UniProt Q96SW2). Put plainly: Measurement of molecular interactions using surface plasmon resonance (SPR), Biacore T200. Format: binding. Particulars: 25° C., immobilized CRBN truncate, upper limit of measurement 200 μM. An outline of the steps:
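C-terminally Avi-tagged CRBN (318-426) captured on a streptavidin SA chip on a Biacore T200. Running buffer 10 mM HEPES pH 7.5, 150 mM NaCl, 1 mM TCEP, 0.005% Tween 20, 2% DMSO; 60 s contact, 120 s dissociation.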
On to `Cc1ccc(NC(=O)Nc2ccc3nc(N4CCC5(CCCC(=O)NC5=O)C4)sc3c2)cc1Cl` (stereo not drawn) [Example 296, 1-(3-Chloro-4-methylphenyl)-3-[2-(6,8-dioxo-2,7-diazaspiro [4.6]undecan-2-yl)-1,3-benzothiazol-6-yl]urea], for which the Kd was ≥ 100 µM.
As for `O=C1CCCC2(CCN(c3nc4ncccc4s3)C2)C(=O)N1` (stereo not drawn) [Example 74, 2-([1,3]thiazolo[4,5-b]pyridin-2-yl)-2,7-diazaspiro[4.6]undecane-6,8-dione], the figure is ≥ 100 µM; as for `O=C1CCC(N2C(=O)CC3(CN(C(=O)CNC(=O)c4ccccc4)C3)C2=O)C(=O)N1` (stereo not drawn) [Example 55, N-[2-[6-(2,6-Dioxopiperidin-3-yl)-5,7-dioxo-2,6-diazaspiro[3.4]octan-2-yl]-2-oxoethyl]benzamide], ≥ 100 µM.
Next, `Cc1sc2c(c1C)C(c1ccc(Cl)cc1)=N[C@@H](CC(=O)NCCCCCCCCNC(=O)CCc1nn(C3CCCC(=O)NC3=O)c3ccccc13)c1nnc(C)n1-2` (stereo partly drawn) [Example 334, N-[8-[[2-[(9S)-7-(4-chlorophenyl)-4,5,13-trimethyl-3-thia-1,8,11,12-tetraazatricyclo[8.3.0.02,6]trideca-2(6),4,7,10,12-pentaen-9-yl]acetyl]amino]octyl]-3-[1-(2,7-dioxoazepan-3-yl)indazol-3-yl]propanamide]: < 50 µM; `CC(C)(C)OC(=O)N1CCC(Oc2ccc(CN3CC4(CC(=O)N(C5CCC(=O)NC5=O)C4=O)C3)cc2)CC1` (stereo not drawn) [Example 237, tert-Butyl 4-[4-[[6-(2,6-dioxopiperidin-3-yl)-5,7-dioxo-2,6-diazaspiro[3.4]octan-2-yl]methyl]phenoxy]piperidine-1-carboxylate]: ≥ 100 µM; `CC(C)(C)OC(=O)Nc1cccc(-c2cn(C3CCCC(=O)NC3=O)nn2)c1` (stereo not drawn) [Example 5, tert-Butyl N-[3-[1-(2,7-dioxoazepan-3-yl)triazol-4-yl]phenyl]carb amate]: ≥ 100 µM.
Next, `CC(=O)Nc1ccc(N(C)C2CCCC(=O)NC2=O)cc1` (stereo not drawn) [Example 121, N-[4-[(2,7-Dioxoazepan-3-yl)-methyl-amino]phenyl]acetamide]: ≥ 100 µM.
`CC(C)(C)OC(=O)c1ccc(N2CCC3(CCCC(=O)NC3=O)C2)nn1` (stereo not drawn) [Example 184, tert-Butyl 6-(6,8-dioxo-2,7-diazaspiro[4.6]undecan-2-yl)pyridazine-3-carboxylate]: the Kd is ≥ 100 µM.
As for `CC(C)(C)OC(=O)N(CC1CCCC(=O)NC1=O)c1ccc(F)cc1` (stereo not drawn) [Example 24, tert-Butyl N-[(2,7-dioxoazepan-3-yl)methyl]-N-(4-fluorophenyl) carbamate], the figure is ≥ 100 µM; as for `Cc1sc2c(c1C)C(c1ccc(Cl)cc1)=N[C@@H](CC(=O)NCCCCCCCCNC(=O)COc1ccc(C#N)c(N3CCC4(CCCC(=O)NC4=O)C3)c1)c1nnc(C)n1-2` (stereo partly drawn) [Example 339, 2-[(9S)-7-(4-chlorophenyl)-4,5,13-trimethyl-3-thia-1,8,11,12-tetraazatricyclo[8.3.0.02,6]trideca-2(6),4,7,10,12-pentaen-9-yl]-N-[8-[[2-[4-cyano-3-(6,8-dioxo-2,7-diazaspiro[4.6]undecan-2-yl)phenoxy]acetyl]amino]octyl]acetamide], < 50 µM; as for `O=C1CCCC2(CCN(c3nc4ccc([N+](=O)[O-])cc4s3)C2)C(=O)N1` (stereo not drawn) [Example 72, 2-(6-Nitro-1,3-benzothiazol-2-yl)-2,7-diazaspiro [4.6]undecane-6,8-dione], < 50 µM.
In the case of `Cc1sc2c(c1C)C(c1ccc(Cl)cc1)=N[C@@H](CC(=O)NCCCCCCCCNC(=O)CCc1ccc3c(c1)sc(=O)n3C1CCCC(=O)NC1=O)c1nnc(C)n1-2` (stereo partly drawn) [Example 342, N-[8-[[2-[(9S)-7-(4-chlorophenyl)-4,5,13-trimethyl-3-thia-1,8,11,12-tetraazatricyclo[8.3.0.02,6]trideca-2(6),4,7,10,12-pentaen-9-yl]acetyl]amino]octyl]-3-[3-(2,7-dioxoazepan-3-yl)-2-oxo-1,3-benzothiazol-6-yl]propanamide], the Kd is < 50 µM.
As for `O=C1CCCC2(CCN(C(=O)c3ccccc3)CC2)C(=O)N1` [Example 106, 3-Benzoyl-3,8-diazaspiro [5.6]dodecane-7,9-dione], the figure is ≥ 100 µM.
Turning to `Cc1sc2c(c1C)C(c1ccc(Cl)cc1)=N[C@@H](CC(=O)NCCCCCCc1cccc3c(C(=O)N4CCC5(CCCC(=O)NC5=O)C4)cccc13)c1nnc(C)n1-2` (stereo partly drawn) [Example 324, 2-[(9S)-7-(4-chlorophenyl)-4,5,13-trimethyl-3-thia-1,8,11,12-tetraazatricyclo[8.3.0.02,6]trideca-2(6),4,7,10,12-pentaen-9-yl]-N-[6-[5-(6,8-dioxo-2,7-diazaspiro[4.6]undecane-2-carbonyl)naphthalen-1-yl]hexyl]acetamide], the Kd is < 50 µM.
Next, `CC(C)(C)OC(=O)N1CCN(C2CCCC(=O)NC2=O)C(=O)C1=O` (stereo not drawn) [Example 29-2, tert-Butyl 4-(2,7-dioxoazepan-3-yl)-2,3-dioxopiperazine-1-carboxylate]: ≥ 100 µM.
As for `CC(C)(C)OC(=O)N1CCC(c2ccc(OC3CCCC(=O)NC3=O)cc2)CC1` (stereo not drawn) [Example 276], the figure is ≥ 100 µM; as for `CN1CCN(c2cnn(C3CCCC(=O)NC3=O)c(=O)c2)CC1` (stereo not drawn) [Example 272, 3-[4-(4-Methylpiperazin-1-yl)-6-oxopyridazin-1-yl]azepane-2,7-dione], ≥ 100 µM; as for `CC(C)(C)OC(=O)NCCCn1c(=O)n(C2CCCC(=O)NC2=O)c2ccccc21` (stereo not drawn) [Example 196, tert-Butyl N-[3-[3-(2,7-dioxoazepan-3-yl)-2-oxobenzimidazol-1-yl]propyl]carbamate], < 50 µM.
As for `O=C1CCOC(c2cccc(Br)c2)C(=O)N1` (stereo not drawn) [Example 19, 2-(3-Bromophenyl)-1,4-oxazepane-3,5-dione], the figure is ≥ 100 µM.
With `O=C1CCCC2(CCN(c3ccc([N+](=O)[O-])cc3F)C2)C(=O)N1` (stereo not drawn) [Example 83, 2-(2-Fluoro-4-nitrophenyl)-2,7-diazaspiro[4.6]undecane-6,8-dione], the Kd was < 50 µM.
Next, `CC(C)(C)OC(=O)c1cccc(N2CC3(CC(=O)N(C4CCC(=O)NC4=O)C3=O)C2)n1` (stereo not drawn) [Example 47, tert-Butyl 6-[6-(2,6-dioxopiperidin-3-yl)-5,7-dioxo-2,6-diazaspiro[3.4]octan-2-yl]pyridine-2-carboxylate]: 50 to 100 µM; `O=C1CCC(N2C(=O)CC3(CN(c4ccc([N+](=O)[O-])cc4)C3)C2=O)C(=O)N1` (stereo not drawn) [Example 232, 6-(2,6-Dioxopiperidin-3-yl)-2-(4-nitrophenyl)-2,6-diazaspiro[3.4]octane-5,7-dione]: 50 to 100 µM.
As for `CC(C)(C)OC(=O)c1ccc2nc(N3CC4(CC(=O)N(C5CCC(=O)NC5=O)C4=O)C3)sc2c1` (stereo not drawn) [Example 231, tert-Butyl 2-[6-(2,6-dioxopiperidin-3-yl)-5,7-dioxo-2,6-diazaspiro[3.4]octan-2-yl]-1,3-benzothiazole-6-carboxylate], the figure is < 50 µM.
Next, `Cc1sc2c(c1C)C(c1ccc(Cl)cc1)=N[C@@H](CC(=O)NCCCCCCCCn1ccc3c(N4CCC5(CCCC(=O)NC5=O)C4)ncnc31)c1nnc(C)n1-2` (stereo partly drawn) [Example 319, 2-[(9S)-7-(4-chlorophenyl)-4,5,13-trimethyl-3-thia-1,8,11,12-tetraazatricyclo[8.3.0.02,6]trideca-2(6),4,7,10,12-pentaen-9-yl]-N-[8-[4-(6,8-dioxo-2,7-diazaspiro[4.6]undecan-2-yl)pyrrolo[2,3-d]pyrimidin-7-yl]octyl]acetamide]: < 50 µM; `CC(=O)Nc1cccc(C2(F)CCCC(=O)NC2=O)c1` (stereo not drawn) [Example 245, N-[3-(3-Fluoro-2,7-dioxoazepan-3-yl)phenyl]acetamide]: ≥ 100 µM; `NC(=O)c1nn(-c2ccc(C(=O)NCCOCCOCCNC(=O)c3ccnc(N4CCC5(CCCC(=O)NC5=O)C4)c3)cc2)cc1NC(=O)c1coc(-c2ccnc(NCC3CC3)c2)n1` (stereo not drawn) [Example 142, N-[3-Carbamoyl-1-[4-[2-[2-[2-[[2-(6,8-dioxo-2,7-diazaspiro [4.6]undecan-2-yl)pyridine-4-carbonyl]amino]ethoxy]ethoxy]ethylcarbamoyl]phenyl]-pyrazol-4-yl]-2-[2-(cyclopropylmethylamino)-4-pyridyl]oxazole-4-carboxamide]: < 50 µM.
`Cc1cc(N2CCC3(CCCC(=O)NC3=O)C2)ccc1[N+](=O)[O-]` (stereo not drawn) [Example 81, 2-(3-Methyl-4-nitrophenyl)-2,7-diazaspiro[4.6]undecane-6,8-dione]: the Kd was ≥ 100 µM.
Next, `Cc1ccc(NC(=O)NCc2ccc(C(=O)N3CCC4(CCCC(=O)NC4=O)C3)cc2)cc1Cl` (stereo not drawn) [Example 157, 1-(3-Chloro-4-methylphenyl)-3-[[4-(6,8-dioxo-2,7-diazaspiro[4.6]undecane-2-carbonyl)phenyl]methyl]urea]: < 50 µM; `N#Cc1cc([N+](=O)[O-])ccc1N1CCC2(CCCC(=O)NC2=O)C1` (stereo not drawn) [Example 177, 2-(6,8-dioxo-2,7-diazaspiro[4.6]undecan-2-yl)-5-nitrobenzonitrile]: 50 to 100 µM.
For `COc1ccc2nn(C3CCCC(=O)NC3=O)nc2c1` (stereo not drawn) [Example 251, 3-(5-Methoxybenzotriazol-2-yl)azepane-2,7-dione], the Kd is ≥ 100 µM.
As for `Nc1nccc(N2CCC3(CCCC(=O)NC3=O)C2)n1` (stereo not drawn) [Example 182, 2-(2-Aminopyrimidin-4-yl)-2,7-diazaspiro[4.6]undecane-6,8-dione], the figure is ≥ 100 µM; as for `CC(C)(C)OC(=O)NCCCCCCCCn1ccc2c(N3CC4(CC(=O)N(C5CCC(=O)NC5=O)C4=O)C3)ncnc21` (stereo not drawn) [Example 236, tert-Butyl N-[8-[4-[6-(2,6-dioxopiperidin-3-yl)-5,7-dioxo-2,6-diazaspiro[3.4]octan-2-yl]pyrrolo[2,3-d]pyrimidin-7-yl]octyl]carbamate], < 50 µM.
Take `CC(C)(C)OC(=O)N1CCN(C2CCCC(=O)NC2=O)C(=O)C1` (stereo not drawn) [Example 29-1, tert-Butyl 4-(2,7-dioxoazepan-3-yl)-3-oxopiperazine-1-carboxylate]: the Kd is ≥ 100 µM.
